According to article PMC8569681, “New Pyrimidine and Pyridine Derivatives as Multitarget Cholinesterase Inhibitors: Design, Synthesis, and In Vitro and In Cellulo Evaluation” (ACS Chemical Neuroscience, 2021):
Read-outs that look alike come from different tables or passages of the source.

Key:
[1] = Antioxidant activity, DPPH spectrophotometric method; conditions: DPPH, absorbance at 515 nm
Procedure: The antioxidant activity assays were carried out according to the 2,2-diphenyl-1-picrylhydrazyl (DPPH) spectrophotometric method.[34] Initially, to assess whether the compounds had antioxidant activity and to define the time required by each antioxidant to reach the steady state, the reduction in absorbance over time at 515 nm of a solution of DPPH mixed with the tested compound was recorded until reaching the plateau. […] The value of EC50 can be extrapolated by plotting the percentage of residual DPPH at the steady state as a function of the molar ratio of the antioxidant to initial DPPH.
2,2-Diphenyl-1-picrylhydrazyl (DPPH), MeOH, and ascorbic acid, used as the reference standard, were purchased from Sigma-Aldrich. Micropipettes Labmate (BRAND Dig. 10–100 μL; Dig. 100–1000 μL) and Transferpette (HIGH TECH LAB LM200: 20–200 μL; LM5000: 1000–5000 μL) were used to collect the samples. The assays were carried out by a double beam UV–vis Lambda 40 Perkin Elmer spectrophotometer using optical polystyrene cuvettes (10 × 10 × 45 mm, 340–800 nm optical transparency); each measure was repeated at least in triplicate. For data processing, UV-WIN Lab version 2.0 (Perkin Elmer Corporation) was used. The antioxidant activity of the tested compounds was evaluated by the DPPH method[34] based on the ability of antioxidant compounds to react with the stable radical DPPH, which has a maximum absorption at about 515 nm. Thus, by measuring the decrease in absorbance over time of DPPH solutions to which increasing amounts of the tested compound are added, the antioxidant activity of the compound can be determined.
[…]. To 2.90 mL of MeOH, 60 μL of a DPPH solution in MeOH (∼1.2 mM) and 40 μL of an antioxidant solution in MeOH (4.5 mM) were added to have in the cuvette concentrations of DPPH equal to about 25 μM and of antioxidant equal to 60 μM. The exact DPPH concentration was calculated through the Lambert–Beer relation, known the extinction coefficient of DPPH at 515 nm, equal to 1.25 × 10^4.[34] The absorbance was recorded until the plateau was reached.
. To obtain the initial DPPH concentration, 2.94 mL of MeOH and 60 μL of the DPPH solution in MeOH (∼1.2 mM) were placed in a polystyrene cuvette and the absorbance was recorded at 515 nm. The exact initial DPPH concentration was calculated through the Lambert–Beer relation. For subsequent measurements, the cuvettes were set up by introducing the opportune volume of MeOH to reach a total volume of 3 mL, 60 μL of the DPPH solution in MeOH (∼1.2 mM, to have a final concentration of ∼25 μM), and the appropriate volumes of the antioxidant stock solution in MeOH to have final concentrations between 1.5 and 12 μM for 20 and between 5 and 60 μM for 18 and 30; the absorbance was recorded at 515 nm at the plateau and then after 1 min for compound 20 and after 90 min for compounds 18 and 30. Each measure was repeated four times. With absorbance data, the percentages of residual DPPH at steady state were obtained using the following equation: [drawing 3] where Ac is the average of absorbance in the presence of antioxidant at plateau and A0 is the average of the initial absorbance of DPPH.
The same procedure was performed using ascorbic acid as the antioxidant at cuvette concentrations between 1.5 and 18 μM, recording the absorbance at 515 nm after 2 min from the preparation of the cuvettes.

[2] = target: T1, equine BChE (eqBChE) (Equus caballus, UniProt P81908); experiment: Percent inhibition of eqBChE, Ellman's spectrophotometric method; assay type: biochemical; conditions: for % inhibition vs eqBChE ± SD (900 uM): 900 nM; for inhibition at 0.9 µM: [I] 900 nM
T1 construct: purchased Sigma-Aldrich (Milan, Italy)
T1 sequence (P81908 whole entry): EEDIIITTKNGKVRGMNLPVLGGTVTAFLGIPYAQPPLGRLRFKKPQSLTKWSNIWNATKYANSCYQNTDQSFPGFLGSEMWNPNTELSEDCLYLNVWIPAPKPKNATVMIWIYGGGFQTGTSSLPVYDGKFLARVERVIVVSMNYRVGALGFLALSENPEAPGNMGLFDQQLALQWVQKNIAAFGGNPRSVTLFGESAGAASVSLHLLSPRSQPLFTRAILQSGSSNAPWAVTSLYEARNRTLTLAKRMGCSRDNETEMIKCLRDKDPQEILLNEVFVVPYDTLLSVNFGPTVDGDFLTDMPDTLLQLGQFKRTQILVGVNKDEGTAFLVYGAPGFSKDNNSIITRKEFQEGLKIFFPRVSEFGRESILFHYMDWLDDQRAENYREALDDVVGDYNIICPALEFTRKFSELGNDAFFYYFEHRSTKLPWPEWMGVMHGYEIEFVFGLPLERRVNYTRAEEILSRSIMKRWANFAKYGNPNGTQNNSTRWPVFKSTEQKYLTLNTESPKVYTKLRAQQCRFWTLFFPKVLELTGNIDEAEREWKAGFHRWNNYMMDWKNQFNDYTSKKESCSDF
Procedure: On the synthesized compounds, enzymatic inhibition studies were carried out toward Electrophorus electricus AChE (EeAChE) and equine BChE (eqBChE) according to Ellman’s spectrophotometric method.[25]
(§1) All other chemical and biological reagents and solvents used were of the highest analytical, commercially available grade. The water, utilized for the preparation of the phosphate buffer and of the compound solutions, was distilled and filtered on nylon membrane filters with a 0.2 μm pore size with the Millipore Filtration apparatus before each use. Micropipettes Labmate (BRAND Dig. 10–100 μL; Dig. 100–1000 μL; Dig. 0.1–2 μL) and Transferpette (HIGH TECH LAB LM200: 20–200 μL; LM5000: 1000–5000 μL) were used to collect the samples. The assays were carried out by a double beam UV–vis Lambda 40 Perkin Elmer spectrophotometer using optical polystyrene cuvettes (10 × 10 × 45 mm, 340–800 nm optical transparency); each measure was repeated at least in triplicate. […] The spectrophotometric method of Ellman[25] with minor modifications was used to evaluate the inhibition of ChEs. […] EeAChE and eqBChE were periodically tested to evaluate the effective enzymatic activity.
(§2) For all the synthesized compounds, the percentages of inhibition toward AChE of Electrophorus electricus (EeAChE) and equine BChE (eqBChE) were evaluated.
(§3) Three milliliters of a solution in 0.1 M phosphate buffer (pH = 7.4) containing DTNB (0.25 mM) and EeAChE (0.083 UmL^–1) or eqBChE (0.083 UmL^–1) was placed in a polystyrene cuvette of 1.0 cm path length; 1 μL of a solution in DMSO of the tested compound was added to obtain a cuvette concentration range of 9–0.09 μM. With this solution, the blank was made. […] Each experiment was repeated at least in triplicate.

[3] = target: T2, Electrophorus electricus AChE (EeAChE) (Electrophorus electricus, UniProt O42275); experiment: Percent inhibition of EeAChE, Ellman's spectrophotometric method; assay type: biochemical; conditions: for inhibition at 900 µM: read-out: % inhibition vs EeAChE ± SD (900 uM), 900 uM; for inhibition at 0.9 µM: read-out: % inhibition vs EeAChE ± SD, [I] 900 nM; for inhibition at 90 µM: read-out: % inhibition vs EeAChE ± SD (90 uM), 90 uM
T2 construct: purchased Sigma-Aldrich (Milan, Italy)
T2 sequence (O42275 24-633): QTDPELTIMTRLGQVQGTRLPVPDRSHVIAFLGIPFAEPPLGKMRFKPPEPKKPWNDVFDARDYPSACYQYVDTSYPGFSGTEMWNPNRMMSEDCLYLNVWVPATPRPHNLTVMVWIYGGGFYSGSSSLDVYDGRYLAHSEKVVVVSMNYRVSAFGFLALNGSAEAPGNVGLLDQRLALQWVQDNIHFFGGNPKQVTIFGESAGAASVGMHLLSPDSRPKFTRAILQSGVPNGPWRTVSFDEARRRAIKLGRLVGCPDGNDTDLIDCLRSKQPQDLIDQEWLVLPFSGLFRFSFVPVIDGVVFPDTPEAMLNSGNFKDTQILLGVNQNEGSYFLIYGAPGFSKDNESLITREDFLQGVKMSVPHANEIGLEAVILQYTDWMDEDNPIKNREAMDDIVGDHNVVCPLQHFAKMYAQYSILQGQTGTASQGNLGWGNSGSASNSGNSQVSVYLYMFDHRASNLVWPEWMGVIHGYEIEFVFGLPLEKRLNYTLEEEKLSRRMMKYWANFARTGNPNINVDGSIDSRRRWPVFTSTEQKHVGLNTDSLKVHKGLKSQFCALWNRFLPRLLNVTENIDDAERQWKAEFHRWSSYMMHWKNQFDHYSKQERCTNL
Procedure: as §1, §2
as §3, with “solution in DMSO of the tested compound was added to obtain a cuvette concentration range of 9–0.09 μM.” left out

[4] = [I] 9 μM, 0.0833 U/mL enzyme, 100 μM acetylthiocholine, read-out: % inhibition vs eqBChE ± SD
[5] = read-out: % inhibition vs eqBChE ± SD (9 uM), 9 uM, supplement csv
[6] = read-out: % inhibition vs EeAChE ± SD (9 uM), 9 uM, supplement csv
[7] = read-out: % inhibition vs EeAChE ± SD, [I] 9 μM, 0.0833 U/mL enzyme, 100 μM acetylthiocholine
[8] = 0.0833 U/mL enzyme, 100 μM acetylthiocholine
[9] = 0.0833 U/mL enzyme, 100 μM acetylthiocholine, read-out: % inhibition vs eqBChE ± SD

Row | Compound | reaction time (time for reaching the plateau) [1] [min] | inhibition at 9 µM [2, 4] [%] | inhibition at 9 µM [2, 5] [%] | inhibition at 9 µM [3, 6] [%] | inhibition at 9 µM [3, 7] [%] | inhibition at 900 µM ([3]; supplement csv) [%] | inhibition at 0.9 µM [3, 8] [%] | % inhibition vs eqBChE ± SD (900 uM) ([2]; supplement csv) [%] | inhibition at 0.9 µM [2, 9] [%] | inhibition at 90 µM ([3]; supplement csv) [%]
1 | CC(C)(C)OC(=O)NCCCCCCNc1ncccn1 [Compound 2, tert-Butyl {6-[(Pyrimidin-2-yl)amino]hexyl}carbamate] | 1 |  |  |  |  |  |  |  |  | 
2 | Brc1ccc(CNCCCCCNc2ncccn2)cc1 [Compound 10, N^1-(4-Bromobenzyl)-N^5-(pyrimidin-2-yl)pentane-1,5-diamine] |  | 17.1 ± 0.9 | 17.1 ± 0.9 | 14.5 ± 0.7 | 14.5 ± 0.7 |  |  |  |  | 
3 | COc1ccccc1CNCCCCCNc1ncccn1 [Compound 11, N^1-(2-Methoxybenzyl)-N^5-(pyrimidin-2-yl)pentane-1,5-diamine] |  | 22.1 ± 1.3 | 22.1 ± 1.3 | 62.2 ± 0.9 | 60 to 70 | 14.6 ± 0.6 | 14.6 ± 0.6 |  |  | 
4 | Clc1cc(CNCCCCCNc2ncccn2)cc(Cl)n1 [Compound 12, N^1-((2,6-Dichloropyridin-4-yl)methyl)-N^5-(pyrimidin-2-yl)pentane-1,5-diamine] |  | 8.5 ± 1.3 | 8.5 ± 1.3 | 16.5 ± 2 | 16.5 ± 2 |  |  |  |  | 
5 | Brc1ccc(CNCCCCCCNc2ncccn2)cc1 [Compound 14, N^1-(4-Bromobenzyl)-N^6-(pyrimidin-2-yl)hexane-1,6-diamine] |  | 38.6 ± 5.5 | 38.6 ± 5.5 | 23 ± 1.6 | 23 ± 1.6 |  |  | 6.6 ± 0.2 | 6.6 ± 0.2 | 
6 | Clc1ccc(CNCCCCCCNc2ncccn2)cc1 [Compound 15, N^1-(4-Chlorobenzyl)-N^6-(pyrimidin-2-yl)hexane-1,6-diamine] |  | 21.5 ± 1.2 | 21.5 ± 1.2 | 29.9 ± 1.2 | 29.9 ± 1.2 |  |  |  |  | 
7 | COc1ccccc1CNCCCCCCNc1ncccn1 [Compound 16, N^1-(2-Methoxybenzyl)-N^6-(pyrimidin-2-yl)hexane-1,6-diamine] |  | 43.9 ± 4.8 | 43.9 ± 4.8 | 68.3 ± 0.7 | 60 to 70 | 15.7 ± 1.1 | 15.7 ± 1.1 | 6.2 ± 0.4 | 6.2 ± 0.4 | 
8 | COc1cc(CNCCCCCCNc2ncccn2)cc(OC)c1OC [Compound 17, N^1-(Pyrimidin-2-yl)-N^6-(3,4,5-trimethoxybenzyl)hexane-1,6-diamine] |  | 29.4 ± 4.5 | 29.4 ± 4.5 | 16.4 ± 2.8 | 16.4 ± 2.8 |  |  |  |  | 
9 | Clc1cc(CNCCCCCCNc2ncccn2)cc(Cl)n1 [Compound 21, N^1-((2,6-Dichloropyridin-4-yl)methyl)-N^6-(pyrimidin-2-yl)hexane-1,6-diamine] |  | 26.8 ± 0.4 | 26.8 ± 0.4 | 18.5 ± 1.8 | 18.5 ± 1.8 |  |  |  |  | 
10 | Brc1ccc(CNCCCCCNc2ccccn2)cc1 [Compound 24, N^1-(4-Bromobenzyl)-N^5-(pyridin-2-yl)pentane-1,5-diamine] |  | 56.4 ± 1.6 | 12.1 ± 4.6 | 18.2 ± 3.5 | 18.2 ± 3.5 |  |  |  | 12.1 ± 4.6 | 56.4 ± 1.6
11 | Clc1ccc(CNCCCCCCNc2ccccn2)cc1 [Compound 27, N^1-(4-Chlorobenzyl)-N^6-(pyridin-2-yl)hexane-1,6-diamine] |  | 73.2 ± 3.6 | 17.7 ± 5.2 | 27.7 ± 4.7 | 24 to 30 |  |  |  | 17.7 ± 5.2 | 73.2 ± 3.6
12 | COc1cc(CNCCCCCCNc2ccccn2)cc(OC)c1OC [Compound 29, N^1-(Pyridin-2-yl)-N^6-(3,4,5-trimethoxybenzyl)hexane-1,6-diamine] |  | 68.9 ± 4.1 | 19 ± 2.5 | 30.9 ± 1.1 | 24 to 30 |  |  |  | 19 ± 2.5 | 68.9 ± 4.1
13 | Oc1cccc(CNCCCCCCNc2ccccn2)c1 [Compound 31, 3-(((6-(Pyridin-2-ylamino)hexyl)amino)methyl)phenol] |  | 56 ± 3.8 | 19.1 ± 2.2 | 42.2 ± 2.2 | ~40 |  |  |  | 19.1 ± 2.2 | 56 ± 3.8
14 | Oc1cccc(CNCCCCCCNc2ccccn2)c1O [Compound 32, 3-(((6-(Pyridin-2-ylamino)hexyl)amino)methyl)benzene-1,2-diol] |  | 59.8 ± 1.5 | 11.5 ± 2.9 | 63.9 ± 2.2 | ~60 | 23.9 ± 1.5 | 23.9 ± 1.5 |  | 11.5 ± 2.9 | 59.8 ± 1.5
15 | Clc1cc(CNCCCCCCNc2ccccn2)cc(Cl)n1 [Compound 33, N^1-((2,6-Dichloropyridin-4-yl)methyl)-N^6-(pyridin-2-yl)hexane-1,6-diamine] |  | 68.3 ± 2.9 | 13 ± 0.7 | 40.6 ± 4.1 | ~40 | 6.2 ± 1.1 | 6.2 ± 1.1 |  | 13 ± 0.7 | 68.3 ± 2.9
16 | O=C1O[C@H]([C@@H](O)CO)C(O)=C1O [ascorbic acid, reference compound] | 2 |  |  |  |  |  |  |  |  | 
